In the test the test system is Plasmodium berghei. Briefly: Luciferase/luciferin-expressing antifolate-resistant parasites were used to infect a culture of HepG2 cells that were pre-incubated with compounds. Infected hepatocytes emit light due to the luciferase reaction. Assay results are presented as the percent inhibition of light emission compared to control. […]. Format: functional. As to conditions: sporozoite; for IC90: read-out: LUCIFERASE INFECTION ASSAY - IC90.

Setting [1] is: read-out: LUCIFERASE INFECTION ASSAY - IC50.

Bounds are passed on as bounds.

On to `O=C(OCc1ncc(-c2ccccc2)o1)c1cc([N+](=O)[O-])ccc1N1CCOCC1`, for which the IC90 worked out at 3.4 µM. Besides, the IC50 (HEPG2TOX_HILL_SLOPE 0.712, HEPG2TOX_R_SQUARED 0.947, PBLUC_HILL_SLOPE 1.1, PBLUC_R_SQUARED 0.629, read-out: LUCIFERASE INFECTION ASSAY - IC50) stood at 0.465 µM.

On to `O=C(Nc1ccnn1-c1nc2ccccc2[nH]1)C(c1ccccc1)c1ccccc1`, for which the IC90 stood at 9.69 µM. Also, under setting [1], the concentration for half-maximal inhibition (IC50) was 5.95 µM.

In the case of `O=S(=O)(c1ccc(Cl)cc1)c1nc(Nc2ccccc2)sc1Cl`, the IC90 was over 10 µM. The IC50 (HEPG2TOX_HILL_SLOPE 3.54, HEPG2TOX_R_SQUARED 0.784, PBLUC_HILL_SLOPE 12.5, PBLUC_R_SQUARED 0.109, read-out: LUCIFERASE INFECTION ASSAY - IC50) was 9.24 µM.

`CCN1CCN(c2ccc(NC(=O)c3csc(COc4ccc(F)cc4)n3)c(C)c2)CC1`: the IC90 stood at 4.43 µM. Further, the IC50 (PBLUC_HILL_SLOPE 19.9, PBLUC_R_SQUARED 0.58, read-out: LUCIFERASE INFECTION ASSAY - IC50) worked out at 3.97 µM.

As to `COc1ccc(Cc2n[nH]c(Nc3cccc(Cl)c3)nc2=O)cc1`, the IC90 came to 1.36 µM. Also, the IC50 under setting [1] was 1.11 µM.

On to `COc1ccc(N/N=C(\C=N\O)C(=O)c2ccccc2)cc1`, for which the IC90 was determined as 5.58 µM. Moreover, for the setting “HEPG2TOX_HILL_SLOPE 1.74, HEPG2TOX_R_SQUARED 0.984, PBLUC_HILL_SLOPE 2.38, PBLUC_R_SQUARED 0.768, read-out: LUCIFERASE INFECTION ASSAY - IC50”, the IC50 was determined as 2.22 µM.

As to `CN(C)CCNC(=O)c1cccc(-c2cnc3ccc(-c4cccs4)nn23)c1`, the IC90 was 3.6 µM.

On to `Cc1nn(Cc2ccccc2Cl)c(Cl)c1/C=C/C(=O)OC(C)C(=O)N1CCCc2ccccc21` (stereo unspecified), for which the IC90 was over 10 µM. Also, the IC50 under setting [1] is over 10 µM.

Turning to `COc1ccc(C(C)(C)C)cc1NC(=O)c1sc2nc3n(c(=O)c2c1C)CCC3`, the concentration for an effect of 90% (IC90) was over 10 µM. In addition, the IC50 under setting [1] is over 10 µM.

Consider `O=C(c1cc(F)cc(F)c1)N1[C@@H]2CC[C@@H](C2)[C@H]1c1nc2c(OCCC3CCCCC3)cccc2[nH]1`, for which the concentration for an effect of 90% (IC90) was over 10 µM. Besides, the IC50 (FFLUC_HILL_SLOPE 146, FFLUC_R_SQUARED 0.488, HEPG2TOX_HILL_SLOPE 10.5, HEPG2TOX_R_SQUARED 0.576, PBLUC_HILL_SLOPE 12.2, PBLUC_R_SQUARED 0.352, read-out: LUCIFERASE INFECTION ASSAY - IC50) is 9.64 µM.

Take `O=C(NCc1cn2ccccc2n1)c1cccc(S(=O)(=O)N2CCc3ccccc3C2)c1`: the IC90 is over 10 µM. Also, the IC50 under setting [1] was over 10 µM.

Consider `Cc1csc(NC(=O)Nc2ccc(C(F)(F)F)cc2)c1`, for which the concentration for an effect of 90% (IC90) is over 11 µM. For the same compound, under setting [1], the IC50 was over 11 µM.

On to `CC(c1cc2ccccc2o1)N(C)C(=O)Cc1ccccc1F` (stereo unspecified), for which the IC90 is over 10 µM. For the same compound, the half-maximal inhibitory concentration (IC50) under setting [1] was over 10 µM.

As for `CCc1nn2c(NCc3ccccn3)cc(C)nc2c1-c1ccccc1`, the IC90 is over 9.61 µM. Also, the IC50 (PBLUC_HILL_SLOPE 4, PBLUC_R_SQUARED 0.354, read-out: LUCIFERASE INFECTION ASSAY - IC50) came to 6.15 µM.

Turning to `CCn1c2ccccc2c2cc(NC(=O)C3CCCN(c4ncccn4)C3)ccc21` (stereo unspecified), the IC90 was 2.28 µM. The IC50 (HEPG2TOX_HILL_SLOPE 1.64, HEPG2TOX_R_SQUARED 0.977, PBLUC_HILL_SLOPE 1.41, PBLUC_R_SQUARED 0.865, read-out: LUCIFERASE INFECTION ASSAY - IC50) is 0.477 µM.

As for `CCOc1ccc(-c2n[nH]c(C)c2Oc2ccccc2Br)c(O)c1`, the IC90 is over 8.48 µM. Moreover, the IC50 (FFLUC_HILL_SLOPE 1.83, FFLUC_R_SQUARED 0.626, read-out: LUCIFERASE INFECTION ASSAY - IC50) was over 8.48 µM.

As to `Cc1cc(C(=O)/C(C#N)=N/Nc2cccc(Cl)c2)n(C(C)(C)C)n1`, the 90% effect concentration (IC90) is over 9.6 µM. In addition, for the setting “HEPG2TOX_HILL_SLOPE 1.25, HEPG2TOX_R_SQUARED 0.973, PBLUC_HILL_SLOPE 1.27, PBLUC_R_SQUARED 0.674, read-out: LUCIFERASE INFECTION ASSAY - IC50”, the IC50 was determined as 3.49 µM.

As to `O=C(CN1CCN(CC(=O)N(Cc2ccccc2)Cc2ccccc2)CC1)Nc1ccc(Cl)c(C(F)(F)F)c1`, the IC90 was over 10 µM. For the setting “PBLUC_HILL_SLOPE 18.3, PBLUC_R_SQUARED 0.38, read-out: LUCIFERASE INFECTION ASSAY - IC50”, the IC50 is 9.55 µM.

On to `CCc1cccc2c(/C=C3\C(=O)Nc4ccccc43)c[nH]c12`, for which the 90% effect concentration (IC90) was over 10 µM. Besides, under setting [1], the IC50 is 6.04 µM.

With `CCN(Cc1ccccc1)c1nc2ccccc2nc1NS(=O)(=O)c1cc([N+](=O)[O-])ccc1C`, the IC90 was over 10 µM. Also, the 50% inhibitory concentration (IC50) (FFLUC_HILL_SLOPE 11.4, FFLUC_R_SQUARED 0.293, HEPG2TOX_HILL_SLOPE 1.92, HEPG2TOX_R_SQUARED 0.959, PBLUC_HILL_SLOPE 2.98, PBLUC_R_SQUARED 0.638, read-out: LUCIFERASE INFECTION ASSAY - IC50) came to 7.87 µM.

With `O=C(Nc1ccnn1Cc1ccc(Cl)cc1Cl)c1cccc(NC(=O)c2cccs2)c1`, the IC90 is over 10 µM. In addition, the IC50 (HEPG2TOX_HILL_SLOPE 6.41, HEPG2TOX_R_SQUARED 0.384, PBLUC_HILL_SLOPE 10.4, PBLUC_R_SQUARED 0.292, read-out: LUCIFERASE INFECTION ASSAY - IC50) came to 8.61 µM.

Turning to `Cc1nc(NC(=O)Cc2nn(C)c(=O)c3ccccc23)sc1-c1ccccn1`, the IC90 was over 10 µM. For the same compound, the IC50 (HEPG2TOX_HILL_SLOPE 1.36, HEPG2TOX_R_SQUARED 0.975, PBLUC_HILL_SLOPE 4.04, PBLUC_R_SQUARED 0.363, read-out: LUCIFERASE INFECTION ASSAY - IC50) was 8.34 µM.

As for `CCn1c2ccccc2c2cc(NC(=O)C(C)OC(=O)c3ccc([N+](=O)[O-])o3)ccc21` (stereo unspecified), the IC90 is over 10 µM. Also, the IC50 under setting [1] is over 10 µM.

Consider `CN(Cc1ccc2c(c1)OCCO2)C(=O)c1ccc(NC(=O)C23CC4CC(CC(C4)C2)C3)cc1`, for which the IC90 was over 10 µM. The IC50 (PBLUC_HILL_SLOPE 12.4, PBLUC_R_SQUARED 0.0833, read-out: LUCIFERASE INFECTION ASSAY - IC50) is over 10 µM.

Take `COC(=O)c1cc2c(N)c(C(=O)c3cc(C#N)c(SC)nc3C)sc2nc1C`: the IC90 was over 10 µM. Also, under setting [1], the IC50 turned out to be 5.83 µM.

Turning to `CC(C)(C)c1ccc(Oc2ccc(N)cc2)cc1`, the IC90 stood at 4.63 µM. For the setting “PBLUC_HILL_SLOPE 1.38, PBLUC_R_SQUARED 0.811, read-out: LUCIFERASE INFECTION ASSAY - IC50”, the IC50 came out at 0.942 µM.

Take `O=c1cc(O)c2c(=O)n3c4c(cccc4c2o1)CCC3`: the IC90 is over 12.3 µM. Under setting [1], the IC50 is over 12.3 µM.

As for `C=C(c1c[nH]c2ccccc12)c1c[nH]c2ccccc12`, the IC90 was over 10 µM. The IC50 (PBLUC_HILL_SLOPE 132, PBLUC_R_SQUARED 0.705, read-out: LUCIFERASE INFECTION ASSAY - IC50) stood at 9.85 µM.

In the case of `CN(Cc1ccc(OCc2ccc(Cl)cc2)cc1)C(=O)c1cnn(C)c1`, the IC90 was over 10 µM. Under setting [1], the IC50 is over 10 µM.

In the case of `CCOC(=O)c1c(-c2ccc(F)cc2)csc1NC(=O)CSc1nc2c(c(CC)c1C#N)C(=O)CC(C)(C)C2`, the IC90 was over 10 µM. Also, the half-maximal inhibitory concentration (IC50) (FFLUC_HILL_SLOPE 86.7, FFLUC_R_SQUARED 0.56, PBLUC_HILL_SLOPE 13.6, PBLUC_R_SQUARED 0.125, read-out: LUCIFERASE INFECTION ASSAY - IC50) was 8.71 µM.

Take `c1ccc(CN2CCOCC2)c(CNc2ncnc3sccc23)c1`: the IC90 was over 10 µM. Also, the IC50 (HEPG2TOX_HILL_SLOPE 7.26, HEPG2TOX_R_SQUARED 0.756, read-out: LUCIFERASE INFECTION ASSAY - IC50) is over 10 µM.

Regarding `CO/N=C1\CC(C)(C)Cc2c(-c3ccn(S(=O)(=O)c4ccc(Cl)cc4)n3)sc(SC)c21`, the IC90 is over 6.65 µM. For the same compound, the IC50 (FFLUC_HILL_SLOPE 0.891, FFLUC_R_SQUARED 0.151, read-out: LUCIFERASE INFECTION ASSAY - IC50) is over 6.65 µM.

Turning to `CN(Cc1nc2ccccc2s1)Cn1cnc2c(=O)n(C)c(=O)n(C)c21`, the concentration for an effect of 90% (IC90) is over 10 µM. Besides, the IC50 (PBLUC_HILL_SLOPE 0.862, PBLUC_R_SQUARED 0.121, read-out: LUCIFERASE INFECTION ASSAY - IC50) stood at 9.69 µM.

As for `COc1ccccc1CNc1cccc2cnccc12`, the IC90 is over 10 µM. The IC50 under setting [1] is over 10 µM.

As for `O=S(=O)(Cc1ccccc1)N1CCN(c2ncnc3sc(-c4ccccc4)cc23)CC1`, the IC90 was over 10 µM. In addition, the IC50 under setting [1] was over 10 µM.

As to `CC(C)c1ccc2c(c1)/C(=N/NC(=O)c1ccccc1F)C(=O)N2`, the IC90 amounted to 0.084 µM. For the same compound, the IC50 (PBLUC_HILL_SLOPE 280, PBLUC_R_SQUARED 0.522, read-out: LUCIFERASE INFECTION ASSAY - IC50) amounted to 0.0833 µM.

In the case of `CCCNC(=O)COC(=O)c1cc(Br)ccc1N`, the IC90 is over 10 µM. The IC50 under setting [1] was over 10 µM.

For `CCCNC(=O)c1c(NC(=O)c2ccc(OCC)cc2)nc2ccccn12`, the IC90 turned out to be 8.98 µM. The IC50 (PBLUC_HILL_SLOPE 45.3, PBLUC_R_SQUARED 0.241, read-out: LUCIFERASE INFECTION ASSAY - IC50) turned out to be 8.55 µM.

Turning to `CCOC(=O)c1ccc(N/C=C(\C(C)=O)c2ccc(OC)c(OC)c2)cc1`, the IC90 is over 8.93 µM. Further, the IC50 under setting [1] was over 8.93 µM.

For the compound `CCc1cccc(Nc2nc3ccccc3s2)c1`, the IC90 was over 10 µM. Besides, for the setting “FFLUC_HILL_SLOPE 1.67, FFLUC_R_SQUARED 0.624, read-out: LUCIFERASE INFECTION ASSAY - IC50”, the IC50 was over 10 µM.

Take `CCOc1cc2ccccc2cc1C(=O)NOCc1ccccc1`: the IC90 is over 10 µM. Moreover, the IC50 (PBLUC_HILL_SLOPE 2.14, PBLUC_R_SQUARED 0.146, read-out: LUCIFERASE INFECTION ASSAY - IC50) was over 10 µM.

The record behind these values is ChEMBL document CHEMBL4483862, “Open-source discovery of chemical leads for next-generation chemoprotective antimalarials” (2018).
